Source: patent publication US10457707B2, “Substituted urea depsipeptide analogs as activators of the CLPP endopeptidase” (priority 2015, dated 2019)
Converted amounts (≈) assume the structure as drawn. Like-named read-outs stand apart in the source and are kept apart here. *1 amine or outer side, *2 acyl side, *3 side chain or, on linkers, in order; H or OH if unused. Where a SMILES comes first, the peptide text is derived from it. Bridges are numbered along the chain shown (N, C = ends). [ ]: non-standard residue; d: D form. The star is where a group is joined. ξ: configuration not given here. Phe(3,5-F2) = N[C@@H](Cc1cc(F)cc(F)c1)C(=O)O; NH(4-OCF3-phenyl) = FC(F)(F)Oc1ccc(N*)cc1; Pro(4R-Me) = C[C@H]1CN[C@H](C(=O)O)C1; ξPro(4R-OH) = O=C(O)C1C[C@@H](O)CN1; ξPro(4S-Me) = C[C@@H]1CNC(C(=O)O)C1; ξPro(4R-Me) = C[C@H]1CNC(C(=O)O)C1; NH(4-Et-phenyl) = CCc1ccc(N*)cc1; aThr = C[C@H](O)[C@H](N)C(=O)O; X12 = c1nc2ccc(N*)cc2[nH]1; Pip = O=C(O)[C@@H]1CCCCN1; NMeA = CN[C@@H](C)C(=O)O; ξPip = O=C(O)C1CCCCN1; CO = O=C([*:1])[*:2]; ξP = O=C(O)C1CCCN1

Columns and labels:
Assay type in all cases: cell-based
[1] = test system: Staphylococcus aureus, USA 300 wherein ClpP is inactivated; test: Minimal inhibitory concentration assay
Description: (§1) It is understood, that in various aspects, the MIC is determined by a microbroth dilution method. In a further aspect, the MIC is determined by a microbroth dilution method using Staphylococcus aureus, ATCC 29213. In a still further aspect, the MIC is determined by a microbroth dilution method using Staphylococcus aureus, NRS70. In a yet further aspect, the MIC is determined by a microbroth dilution method using Streptococcus pyogenes, ATCC 700294. In an even further aspect, the MIC is determined by a microbroth dilution method using Streptococcus pneumoniae, DAW27. In a still further aspect, the MIC is determined by a microbroth dilution method using Bacillus subtilis, ATCC 23857. In a yet further aspect, the MIC is determined by a microbroth dilution method using Enterococcus faecalis, ATCC 33186. In an even further aspect, the MIC is determined using Staphylococcus aureus, USA 300. In a still further aspect, the MIC is determined using Streptococcus pneumoniae, R6. In a further aspect, the MIC is determined using Staphylococcus aureus, USA 300 and compared to the MIC determined using Staphylococcus aureus, USA 300 wherein ClpP is inactivated, thus allowing confirmation that killing is via a ClpP-dependent pathway.
(§2) Minimal inhibitory concentrations (“MICs”) were determined using the microbroth dilution method according to Clinical Laboratory Standards Institute (CLSI; National, C.F. C. L. S., Methods for Dilution Antimicrobial Susceptibility Tests for Bacteria Grow aerobically-Seventh Edition: Approved Standard M7-A7, CLSI, Wayne, Pa., USA, 2008) and were read by visual inspection. Two fold serial dilutions of test compound in 100 μL of the appropriate broth media were first prepared in 96-well round bottom microtiter plates (Nalgene Nunc International, Rochester, N.Y., USA). An equivalent volume (100 μL) of bacterial broth inocula containing approximately 10^5 bacterial cfu/mL was added to each well to give final concentrations of test compound starting at 200 μM. The plates were then incubated aerobically at 37° C. All strains were incubated overnight. After incubations, in all cases the MIC was recorded as the lowest concentration of drug that prevented bacterial growth. The bacterial strains for which MIC was determined as described in Table 4.

[2] = test system: Staphylococcus aureus, USA 300; test: Minimal inhibitory concentration assay; conditions: USA300, read-out: Minimal Inhibitory Concentrations S. aureus USA 300
Description: as §1, §2

[3] = test system: Streptococcus pyogenes, ATCC 700294; test: Minimal inhibitory concentration assay (microbroth dilution); conditions: Streptococcus pyogenes, ATCC700294; read-out: Minimal Inhibitory Concentrations S. pyogenes ATCC 700294
Description: as §1
Minimal inhibitory concentrations (“MICs”) were determined using the microbroth dilution method according to Clinical Laboratory Standards Institute (CLSI; National, C.F. C. L. S., Methods for Dilution Antimicrobial Susceptibility Tests for Bacteria Grow aerobically-Seventh Edition: Approved Standard M7-A7, CLSI, Wayne, Pa., USA, 2008) and were read by visual inspection. Two fold serial dilutions of test compound in 100 μL of the appropriate broth media were first prepared in 96-well round bottom microtiter plates (Nalgene Nunc International, Rochester, N.Y., USA). […] The plates were then incubated aerobically at 37° C. All strains were incubated overnight. After incubations, in all cases the MIC was recorded as the lowest concentration of drug that prevented bacterial growth. The bacterial strains for which MIC was determined as described in Table 4.

[4] = test system: Staphylococcus aureus, NRS70; test: as above
Description: as §1, §2

[5] = test system: Staphylococcus aureus, ATCC 29213; test: as above; conditions: ATCC29213, read-out: Minimal Inhibitory Concentrations S. aureus ATCC 29213
Description: as §1, §2

[6] = test system: Bacillus subtilis, ATCC 23857; test: as above; conditions: Bacillus subtilis, ATCC23857; read-out: Minimal Inhibitory Concentrations B. subtilis ATCC 23857
Description: as §1, §2

[7] = test system: Enterococcus faecalis, ATCC 33186; test: as above; conditions: Enterococcus faecalis, ATCC33186, read-out: Minimal Inhibitory Concentrations E. faecalis ATCC 33186
Description: as §1, §2

[8] = Staphylococcus aureus, NRS70; read-out: Minimal Inhibitory Concentrations S. aureus NRS70

Structure (SMILES) | Minimal Inhibitory Concentrations S. aureus USA 300 ΔClpP [1] [µM] | MIC [2] [µM] | MIC [3] [µM] | MIC [4, 8] [µM] | MIC [5] [µM] | MIC [6] [µM] | MIC ([4]; Staphylococcus aureus, NRS70, read-out: Minimal Inhibitory Concentrations S. aureus NRS70) [µM] | MIC [7] [µM]
C[C@H]1CC2C(=O)O[C@@H](C)[C@H](NC(=O)[C@H](Cc3cc(F)cc(F)c3)NC(=O)Nc3ccc(OC(F)(F)F)cc3)C(=O)N3C[C@H](O)CC3C(=O)N(C)[C@@H](C)C(=O)N[C@@H](C)C(=O)N2C1 (stereo partly drawn) [Compound 32, (S)-3-(3,5-difluorophenyl)-N-((2S,6S,9S,11aS,13R,17S,18S,20aS)-13-hydroxy-2,6,9,10,18-pentamethyl-5,8,11,16,20-pentaoxohexadecahydro-1H,5H,16H-dipyrrolo[2,1-c:2′,1′-l][1]oxa[4,7,10,13]tetraazacyclohexadecin-17-yl)-2-(3-(4-(trifluoromethoxy)phenyl)ureido)propanamide] ({NH(4-OCF3-phenyl)-CO}-[Phe(3,5-F2)][aThr][ξPro(4R-OH)][NMeA]A[ξPro(4S-Me)]; ester 2-C) | 100 | 0.39 (≈ 0.338 µg/mL) | 0.2 (≈ 0.174 µg/mL) | 0.1 (≈ 0.0868 µg/mL) | 0.1 (≈ 0.0868 µg/mL) | 0.39 (≈ 0.338 µg/mL) | – | –
C[C@H]1CC2C(=O)OC[C@H](NC(=O)[C@H](Cc3ccccc3)NC(=O)Nc3ccc(OC(F)(F)F)cc3)C(=O)N3CCCC3C(=O)N3CCCCC3C(=O)N[C@@H](C)C(=O)N2C1 (stereo partly drawn) [Compound 44, (S)—N-((2S,6S,8aS,14aS,20S,23aS)-2,6-dimethyl-5,8,14,19,23-pentaoxooctadecahydro-1H,5H,14H,19H-pyrido[2,1-i]dipyrrolo[2,1-c:2′,1′-l][1]oxa[4,7,10,13]tetraazacyclohexadecin-20-yl)-3-phenyl-2-(3-(4-(trifluoromethoxy)phenyl)ureido)propanamide] | 50 | 0.8 (≈ 0.662 µg/mL) | 0.2 (≈ 0.166 µg/mL) | 0.4 (≈ 0.331 µg/mL) | 0.4 (≈ 0.331 µg/mL) | 0.1 (≈ 0.0828 µg/mL) | – | –
CCc1ccc(NC(=O)N[C@@H](Cc2cc(F)cc(F)c2)C(=O)N[C@@H]2C(=O)N3CCCC3C(=O)N(C)[C@@H](C)C(=O)N[C@@H](C)C(=O)N3C[C@@H](C)CC3C(=O)O[C@H]2C)cc1 (stereo partly drawn) [Compound 30, (S)-3-(3,5-difluorophenyl)-2-(3-(4-ethylphenyl)ureido)-N-((2S,6S,9S,11aS,17S,18S,20aS)-2,6,9,10,18-pentamethyl-5,8,11,16,20-pentaoxohexadecahydro-1H,5H,16H-dipyrrolo[2,1-c:2′,1′-L][1]oxa[4,7,10,13]tetraazacyclohexadecin-17-yl)propanamide] ({NH(4-Et-phenyl)-CO}-[Phe(3,5-F2)][aThr][ξP][NMeA]A[ξPro(4S-Me)]; ester 2-C) | 50 | 0.1 (≈ 0.0796 µg/mL) | 0.03 (≈ 0.0239 µg/mL) | 0.2 (≈ 0.159 µg/mL) | 0.1 (≈ 0.0796 µg/mL) | 0.001 (≈ 0.000796 µg/mL) | – | –
C[C@@H]1C[C@H]2C(=O)O[C@@H](C)[C@H](NC(=O)[C@H](Cc3cc(F)cc(F)c3)NC(=O)Nc3ccc4nc[nH]c4c3)C(=O)N3CCC[C@H]3C(=O)N3CCCC[C@H]3C(=O)N[C@@H](C)C(=O)N2C1 [Compound 303, (S)-2-(3-(1H-benzo[d]imidazol-6-yl)ureido)-3-(3,5-difluorophenyl)-N-((2R,6S,8aS,14aS,20S,21S,23aS)-2,6,21-trimethyl-5,8,14,19,23-pentaoxooctadecahydro-1H,5H,14H,19H-pyrido[2,1-i]dipyrrolo[2,1-c:2′,1′-l][1]oxa[4,7,10,13]tetraazacyclo-hexadecin-20-yl)propanamide] ({X12-CO}-[Phe(3,5-F2)][aThr]P[Pip]A[Pro(4R-Me)]; ester 2-C) | >20 | 15.1 (≈ 12.6 µg/mL) | – | – | 20 (≈ 16.7 µg/mL) | – | 10.1 (≈ 8.42 µg/mL) | 2.5 (≈ 2.08 µg/mL)
C[C@H]1CC2C(=O)OC[C@H](NC(=O)[C@H](Cc3cc(F)cc(F)c3)NC(=O)Nc3ccc4c(c3)OCO4)C(=O)N3CCCC3C(=O)N3CCCCC3C(=O)N[C@@H](C)C(=O)N2C1 (stereo partly drawn) [Compound 46, (S)-2-(3-(benzo[d][1,3]dioxol-5-yl)ureido)-3-(3,5-difluorophenyl)-N-((2S,6S,8aS,14aS,20S,23aS)-2,6-dimethyl-5,8,14,19,23-pentaoxooctadecahydro-1H,5H,14H,19H-pyrido[2,1-i]dipyrrolo[2,1-c:2′,1′-l][1]oxa[4,7,10,13]tetraazacyclohexadecin-20-yl)propanamide] | 200 | 3.1 (≈ 2.55 µg/mL) | 0.8 (≈ 0.659 µg/mL) | 1.6 (≈ 1.32 µg/mL) | 3.1 (≈ 2.55 µg/mL) | 0.4 (≈ 0.33 µg/mL) | – | –
CCc1ccc(NC(=O)N[C@@H](Cc2cc(F)cc(F)c2)C(=O)N[C@@H]2C(=O)N3CCCC3C(=O)N(C)[C@@H](C)C(=O)N[C@@H](C)C(=O)N3CCCC3C(=O)O[C@H]2C)cc1 (stereo partly drawn) [Compound 29, (2S)-3-(3,5-difluorophenyl)-2-(3-(4-ethylphenyl)ureido)-N-((6S,9S,11aS,17S,18S)-6,9,10,18-tetramethyl-5,8,11,16,20-pentaoxohexadecahydro-1H,5H,16H-dipyrrolo[2,1-c:2′,1′-l][1]oxa[4,7,10,13]tetraazacyclohexadecin-17-yl)propanamide] ({NH(4-Et-phenyl)-CO}-[Phe(3,5-F2)][aThr][ξP][NMeA]A[ξP]; ester 2-C) | 100 | 0.2 (≈ 0.156 µg/mL) | 0.13 (≈ 0.102 µg/mL) | 0.2 (≈ 0.156 µg/mL) | 0.2 (≈ 0.156 µg/mL) | 0.01 (≈ 0.00782 µg/mL) | – | –
C[C@@H]1NC(=O)[C@H](C)N(C)C(=O)C2CCCN2C(=O)[C@@H](NC(=O)[C@H](Cc2cc(F)cc(F)c2)NC(=O)Nc2ccc(OC(F)(F)F)cc2)[C@H](C)OC(=O)C2CCCN2C1=O (stereo partly drawn) [Compound 27, (2S)-3-(3,5-difluorophenyl)-N-((6S,9S,11aS,17S,18S)-6,9,10,18-tetramethyl-5,8,11,16,20-pentaoxohexadecahydro-1H,5H,16H-dipyrrolo[2,1-c:2′,1′-l][1]oxa[4,7,10,13]tetraazacyclohexadecin-17-yl)-2-(3-(4-(trifluoromethoxy)phenyl)ureido)propanamide] ({NH(4-OCF3-phenyl)-CO}-[Phe(3,5-F2)][aThr][ξP][NMeA]A[ξP]; ester 2-C) | 100 | 0.2 (≈ 0.168 µg/mL) | 0.23 (≈ 0.193 µg/mL) | 0.2 (≈ 0.168 µg/mL) | 0.2 (≈ 0.168 µg/mL) | 0.02 (≈ 0.0168 µg/mL) | – | –
C[C@@H]1CC2C(=O)O[C@@H](C)[C@H](NC(=O)[C@H](Cc3cc(F)cc(F)c3)NC(=O)Nc3ccc(OC(F)(F)F)cc3)C(=O)N3CCCC3C(=O)N3CCCCC3C(=O)N[C@@H](C)C(=O)N2C1 (stereo partly drawn) [Compound 40, (S)-3-(3,5-difluorophenyl)-2-(3-(4-(trifluoromethoxy)phenyl)ureido)-N-((2R,6S,8aS,14aS,20S,21S,23aS)-2,6,21-trimethyl-5,8,14,19,23-pentaoxooctadecahydro-1H,5H,14H,19H-pyrido[2,1-i]dipyrrolo[2,1-c:2′,1′-L][1]oxa[4,7,10,13]tetraazacyclohexadecin-20-yl)propanamide] ({NH(4-OCF3-phenyl)-CO}-[Phe(3,5-F2)][aThr][ξP][ξPip]A[ξPro(4R-Me)]; ester 2-C) | 25 | 0.05 (≈ 0.0439 µg/mL) | 0.4 (≈ 0.351 µg/mL) | 0.02 (≈ 0.0176 µg/mL) | 0.05 (≈ 0.0439 µg/mL) | 0.02 (≈ 0.0176 µg/mL) | – | –
